Laboratory results as given in patent US20250326744A1, “PIPERAZINE DERIVATIVE OR SALT THEREOF, AND PHARMACEUTICAL COMPOSITION” (priority 2022, published 2025).
Where a name gives a salt, the structure may show the parent alone.

What was measured:
mexB (PA) strain = assay: Combinational effect with antibacterial agent against Pseudomonas aeruginosa (Test Examples 2 and 4): mexB (PA) strain with LVFX, TC or AZT at 1/4 MIC, EC99; type: cell-based; conditions: Table 52, Test Example 2, 16 to 20 hours culture, OD595; for EC99, mexB (PA), AZT: combined with AZT at 1/4 MIC; for EC99, mexB (PA), LVFX: combined with LVFX at 1/4 MIC; for EC99, mexB (PA), TC: combined with TC at 1/4 MIC
Experimental: (§1) The combinational effect of the test compound with the antibacterial agent against Pseudomonas aeruginosa was evaluated.
For the evaluation of the inhibitory ability against MexAB-OprM, a mutant strain of Pseudomonas aeruginosa in which MexAB-OprM was expressed as a main drug efflux pump (hereinafter, referred to as a “mexB (PA) strain”) was used. LVFX, TC, or AZT was used as the antibacterial agent used in combination.
The mexB (PA) strain is a strain produced by deleting the genes of MexCD-OprJ, MexEF-OprN, and MexXY in the drug efflux pump of Pseudomonas aeruginosa described in FEMS Microbiology Letters, 2001, Vol. 202, pp. 139 to 143. In the mexB (PA) strain, an expression level of MexB as a drug efflux pump is accelerated.
TC is a tetracycline-based antibacterial agent and is a drug that is discharged outside the bacteria by MexB. AZT is a monobactam-based antibacterial agent and is a drug that is discharged outside the bacteria by MexB.
(§2) AMK and GM are aminoglycoside-based antibacterial agents, and are drugs that are not discharged outside the bacteria by MexB but are discharged outside the bacteria by MexY For the culture of each Pseudomonas aeruginosa strain, a 96-well plate (amount of culture medium per well: 100 μL) was used, and cation-adjusted Mueller Hinton broth (CAMHB) was used. The inoculation amount of the bacteria was set to 10^4 to 5 CFU/well.
(§3) The mexB (PA) strain and the S-3769 strain were cultured for 16 to 20 hours in a culture medium to which each antibacterial agent and test compounds at various concentrations (0 to 800 μM) were added, and the proliferation of the bacterial strains was evaluated by optical turbidity at 595 nm (OD595). The concentration of the antibacterial agent in the culture medium was set to ¼ MIC.
(§4) The proliferation of bacteria in a case where the test compound and the antibacterial agent were not added was measured, and compared with the proliferation of bacteria in a case where the test compound in a case where the antibacterial agent was added at the concentration of ¼ MIC was contained, and the lowest concentration of the test compound at which the proliferation was inhibited by 99% or more was defined as the drug efflux pump inhibitory ability of the test compound as 99% inhibitory effect concentration (EC99).
(§5) The effect of suppressing the proliferation of each test compound in combination with an antibacterial agent at ¼ MIC for mexB (PA) or the S-3769 strain was evaluated as follows according to the value of EC99. • S: EC99≤12.5 μM • A: 12.5 μM<EC99≤25 μM • B: 25 μM<EC99≤100 μM • C: 100 μM<EC99
(§6) The combinational effect of the test compound with the antibacterial agent against Pseudomonas aeruginosa was evaluated in the same manner as in Test Example 2.

S-3769 strain = assay: Combinational effect with antibacterial agent against Pseudomonas aeruginosa (Test Examples 2 and 4): S-3769 strain with AMK or GM at 1/4 MIC, EC99; type: cell-based; conditions: Table 52, Test Example 2, 16 to 20 hours culture, OD595; for EC99, S-3769 strain, AMK: combined with AMK at 1/4 MIC; for EC99, S-3769 strain, GM: combined with GM at 1/4 MIC
Experimental: as §1
The […] was used for evaluating the inhibitory ability against MexXY-OprM. AMK or GM was used as the antibacterial agent used in combination.
The S-3769 strain is a clinically isolated strain collected from a domestic medical institution, and is a strain in which the expression level of MexY is accelerated.
as §2, §3, §4, §5, §6

Row | SMILES | EC99, mexB (PA), AZT (mexB (PA) strain) | EC99, mexB (PA), LVFX (mexB (PA) strain) | EC99, mexB (PA), TC (mexB (PA) strain) | EC99, S-3769 strain, AMK (S-3769 strain) | EC99, S-3769 strain, GM (S-3769 strain)
1 | N[C@@H](C(=O)N1CCN(Cc2cccc3c2OC(F)(F)O3)CC1)C1CCN(CCc2cc(Cl)ccc2-c2ccccc2)CC1 [Example 24, Hydrobromide of (R)-2-amino-2-(1-(2-(4-chloro-[1,1′-biphenyl]-2-yl)ethyl)piperidin-4-yl)-1-(4-((2,2-difluorobenzo[d][1,3]dioxol-4-yl)methyl)piperazin-1-yl)ethan-1-one] | B (25 μM<EC99≤100 μM) | B (25 μM<EC99≤100 μM) | A (12.5 μM<EC99≤25 μM) | B (25 μM<EC99≤100 μM) | B (25 μM<EC99≤100 μM)
2 | CCSc1cccc(F)c1CN1CCN(C(=O)[C@H](N)C2CCN(CCc3cc(Cl)ccc3-c3ccccc3)CC2)CC1 [Example 27, (R)-2-amino-2-(1-(2-(4-chloro-[1,1′-biphenyl]-2-yl)ethyl)piperidin-4-yl)-1-(4-(2-(ethylthio)-6-fluorobenzyl)piperazin-1-yl)ethan-1-one] | A (12.5 μM<EC99≤25 μM) | A (12.5 μM<EC99≤25 μM) | S (EC99≤12.5 μM) | S (EC99≤12.5 μM) | S (EC99≤12.5 μM)
3 | CCSc1cc(F)ccc1CN1CCN(C(=O)[C@H](N)C2CCN(CCc3cc(Cl)ccc3-c3ccccc3)CC2)CC1 [Example 30, (R)-2-amino-2-(1-(2-(4-chloro-[1,1′-biphenyl]-2-yl)ethyl)piperidin-4-yl)-1-(4-(2-(ethylthio)-4-fluorobenzyl)piperazin-1-yl)ethan-1-one] | S (EC99≤12.5 μM) | S (EC99≤12.5 μM) | S (EC99≤12.5 μM) | S (EC99≤12.5 μM) | S (EC99≤12.5 μM)
4 | CCOc1ccc(F)c(F)c1CN1CCN(C(=O)[C@H](N)C2CCN(CCc3cc(Cl)ccc3-c3ccccc3)CC2)CC1 [Example 35, Hydrobromide of (R)-2-amino-2-(1-(2-(4-chloro-[1,1′-biphenyl]-2-yl)ethyl)piperidin-4-yl)-1-(4-(6-ethoxy-2,3-difluorobenzyl)piperazin-1-yl)ethan-1-one] | B (25 μM<EC99≤100 μM) | C (100 μM<EC99) | B (25 μM<EC99≤100 μM) | S (EC99≤12.5 μM) | S (EC99≤12.5 μM)
5 | N[C@@H](C(=O)N1CCN(Cc2cccc3c2OCO3)CC1)C1CCN(CCc2cc(Cl)ccc2-c2ccccc2)CC1 [Example 36, Hydrobromide of (R)-2-amino-1-(4-(benzo[d][1,3]dioxol-4-ylmethyl)piperazin-1-yl)-2-(1-(2-(4-chloro-[1,1′-biphenyl]-2-yl)ethyl)piperidin-4-yl) ethan-1-one] | B (25 μM<EC99≤100 μM) | C (100 μM<EC99) | B (25 μM<EC99≤100 μM) | B (25 μM<EC99≤100 μM) | B (25 μM<EC99≤100 μM)
6 | N[C@@H](C(=O)N1CCN(Cc2cccc3c2OCCO3)CC1)C1CCN(CCc2cc(Cl)ccc2-c2ccccc2)CC1 [Example 37, Hydrobromide of (R)-2-amino-2-(1-(2-(4-chloro-[1,1′-biphenyl]-2-yl)ethyl)piperidin-4-yl)-1-(4-((2,3-dihydrobenzo[b] [1,4]dioxin-5-yl)methyl)piperazin-1-yl) ethan-1-one] | B (25 μM<EC99≤100 μM) | C (100 μM<EC99) | B (25 μM<EC99≤100 μM) | B (25 μM<EC99≤100 μM) | B (25 μM<EC99≤100 μM)
7 | N[C@@H](C(=O)N1CCN(Cc2cccc3c2OCC3)CC1)C1CCN(CCc2cc(Cl)ccc2-c2ccccc2)CC1 [Example 38, Hydrobromide of (R)-2-amino-2-(1-(2-(4-chloro-[1,1′-biphenyl]-2-yl)ethyl)piperidin-4-yl)-1-(4-((2,3-dihydrobenzofuran-7-yl)methyl)piperazin-1-yl)ethan-1-one] | A (12.5 μM<EC99≤25 μM) | C (100 μM<EC99) | B (25 μM<EC99≤100 μM) | A (12.5 μM<EC99≤25 μM) | A (12.5 μM<EC99≤25 μM)
8 | N[C@@H](C(=O)N1CCN(Cc2cccc3ccoc23)CC1)C1CCN(CCc2cc(Cl)ccc2-c2ccccc2)CC1 [Example 39, Hydrobromide of (R)-2-amino-1-(4-(benzofuran-7-ylmethyl)piperazin-1-yl)-2-(1-(2-(4-chloro-[1,1′-biphenyl]-2-yl)ethyl)piperidin-4-yl)ethan-1-one] | A (12.5 μM<EC99≤25 μM) | B (25 μM<EC99≤100 μM) | A (12.5 μM<EC99≤25 μM) | A (12.5 μM<EC99≤25 μM) | B (25 μM<EC99≤100 μM)
9 | CCOc1cccc(F)c1CN1CCN(C(=O)[C@H](N)C2CCN(CCc3cccc4ccccc34)CC2)CC1 [Example 42] | B (25 μM<EC99≤100 μM) | B (25 μM<EC99≤100 μM) | B (25 μM<EC99≤100 μM) | S (EC99≤12.5 μM) | S (EC99≤12.5 μM)
10 | CCOc1cccc(F)c1CN1CCN(C(=O)[C@H](N)C2CCN(CCc3cc(Cl)ccc3-c3ccccc3Cl)CC2)CC1 [Example 44, (R)-2-amino-2-(1-(2-(2′,4-dichloro-[1,1′-biphenyl]-2-yl)ethyl)piperidin-4-yl)-1-(4-(2-ethoxy-6-fluorobenzyl)piperazin-1-yl)ethan-1-one] | S (EC99≤12.5 μM) | A (12.5 μM<EC99≤25 μM) | S (EC99≤12.5 μM) | S (EC99≤12.5 μM) | S (EC99≤12.5 μM)
11 | CCOc1cccc(F)c1CN1CCN(C(=O)[C@H](N)C2CCN(CCc3ccccc3-c3cc(F)cc(F)c3)CC2)CC1 [Example 48, Hydrobromide of (R)-2-amino-2-(1-(2-(3′,5′-difluoro-[1,1′-biphenyl]-2-yl)ethyl)piperidin-4-yl)-1-(4-(2-ethoxy-6-fluorobenzyl)piperazin-1-yl)ethan-1-one] | B (25 μM<EC99≤100 μM) | C (100 μM<EC99) | B (25 μM<EC99≤100 μM) | B (25 μM<EC99≤100 μM) | A (12.5 μM<EC99≤25 μM)
12 | CCOc1cccc(F)c1CN1CCN(C(=O)[C@H](N)C2CCN(CCc3cc(F)ccc3-c3ccccc3)CC2)CC1 [Example 50, Hydrobromide of (R)-2-amino-1-(4-(2-ethoxy-6-fluorobenzyl)piperazin-1-yl)-2-(1-(2-(4-fluoro-[1,1′-biphenyl]-2-yl)ethyl)piperidin-4-yl)ethan-1-one] | B (25 μM<EC99≤100 μM) | C (100 μM<EC99) | B (25 μM<EC99≤100 μM) | B (25 μM<EC99≤100 μM) | A (12.5 μM<EC99≤25 μM)
13 | CCOc1cccc(F)c1CN1CCN(C(=O)[C@H](N)C2CCN(CCc3cc(OC)ccc3-c3ccccc3)CC2)CC1 [Example 51, Hydrobromide of (R)-2-amino-1-(4-(2-ethoxy-6-fluorobenzyl)piperazin-1-yl)-2-(1-(2-(4-methoxy-[1,1′-biphenyl]-2-yl)ethyl)piperidin-4-yl)ethan-1-one] | B (25 μM<EC99≤100 μM) | B (25 μM<EC99≤100 μM) | B (25 μM<EC99≤100 μM) | A (12.5 μM<EC99≤25 μM) | S (EC99≤12.5 μM)
